Measurements from article PMC5218480 (PLoS ONE, 2017).

Test system: MV-4-11 cells
Test: Gene expression microarray analysis (Affymetrix PrimeView) and GSEA
Assay type: cell-based, human
Design: RFU PODN (11730768_x_at) / Fold change /veh PODN (11730768_x_at) / RFU LINC00158 (11744669_a_at) / Fold change /veh LINC00158 (11744669_a_at) / RFU DUSP10 (11751237_a_at) / Fold change /veh DUSP10 (11751237_a_at) / RFU ID3 (11757404_x_at) / Fold change /veh ID3 (11757404_x_at) / RFU PLEKHG5 (11737974_s_at) / Fold change /veh PLEKHG5 (11737974_s_at) / RFU LRRC4B (11730491_at) / Fold change /veh LRRC4B (11730491_at) / RFU GIMAP4 (11747438_a_at) / Fold change /veh GIMAP4 (11747438_a_at) / RFU KRT8 (11758183_x_at) / Fold change /veh KRT8 (11758183_x_at) / RFU CNN1 (11734310_a_at) / Fold change /veh CNN1 (11734310_a_at) / RFU VPS37D (11726825_at) / Fold change /veh VPS37D (11726825_at) / RFU C10orf10 (11716522_x_at) / Fold change /veh C10orf10 (11716522_x_at) / RFU KIR2DL2 /// KIR2DL4 /// KIR2DL5A /// KIR2DL5B /// KIR2DS1 /// KIR2DS2 /// KIR2DS3 /// KIR2DS4 /// KIR3DL3 /// KIR3DL3 /// KIR3DS1 (11738374_at) / Fold change /veh KIR2DL2 /// KIR2DL4 /// KIR2DL5A /// KIR2DL5B /// KIR2DS1 /// KIR2DS2 /// KIR2DS3 /// KIR2DS4 /// KIR3DL3 /// KIR3DL3 /// KIR3DS1 (11738374_at) / RFU C1QL1 (11718748_at) / Fold change /veh C1QL1 (11718748_at) / RFU TMPRSS4 (11747572_a_at) / Fold change /veh TMPRSS4 (11747572_a_at) / RFU HAMP (11756126_x_at) / Fold change /veh HAMP (11756126_x_at) / RFU RNFT2 (11725882_a_at) / Fold change /veh RNFT2 (11725882_a_at) / RFU NR4A2 (11747474_a_at) / Fold change /veh NR4A2 (11747474_a_at) / RFU ABCC12 (11746883_a_at) / Fold change /veh ABCC12 (11746883_a_at) / RFU TMEM136 (11760407_x_at) / Fold change /veh TMEM136 (11760407_x_at) / RFU CLDN22 /// WWC2 (11732394_at) / Fold change /veh CLDN22 /// WWC2 (11732394_at) / RFU HLA-DPB1 (11760878_x_at) / Fold change /veh HLA-DPB1 (11760878_x_at) / RFU SPINT1 (11716480_a_at) / Fold change /veh SPINT1 (11716480_a_at) / RFU GAP43 (11754022_s_at) / Fold change /veh GAP43 (11754022_s_at) / RFU A4GNT (11735810_at) / Fold change /veh A4GNT (11735810_at) / RFU PRB3 (11715151_x_at) / Fold change /veh PRB3 (11715151_x_at) / RFU TUBB4B (11761932_at) / Fold change /veh TUBB4B (11761932_at) / RFU CAPN14 (11732068_a_at) / Fold change /veh CAPN14 (11732068_a_at) / RFU TMCC2 (11721928_a_at) / Fold change /veh TMCC2 (11721928_a_at) / RFU IRGQ (11745062_a_at) / Fold change /veh IRGQ (11745062_a_at) / RFU FAM174B (11720279_a_at) / Fold change /veh FAM174B (11720279_a_at) / RFU TMPRSS4 (11748680_a_at) / Fold change /veh TMPRSS4 (11748680_a_at) / RFU FAM212B (11763350_a_at) / Fold change /veh FAM212B (11763350_a_at) / RFU PLEKHG5 (11743358_a_at) / Fold change /veh PLEKHG5 (11743358_a_at) / RFU ZSCAN30 (11745921_a_at) / Fold change /veh ZSCAN30 (11745921_a_at) / RFU CMKLR1 (11741424_a_at) / Fold change /veh CMKLR1 (11741424_a_at) / RFU LOC101060620 /// MAPK8IP1 (11723275_at) / Fold change /veh LOC101060620 /// MAPK8IP1 (11723275_at) / RFU SPTSSB (11747773_x_at) / Fold change /veh SPTSSB (11747773_x_at) / RFU PRSS12 (11739890_at) / Fold change /veh PRSS12 (11739890_at) / RFU BIN1 (11741810_x_at) / Fold change /veh BIN1 (11741810_x_at) / RFU WNT11 (11732464_a_at) / Fold change /veh WNT11 (11732464_a_at) / RFU C10orf10 (11716521_a_at) / Fold change /veh C10orf10 (11716521_a_at) / RFU C5orf56 (11738089_at) / Fold change /veh C5orf56 (11738089_at) / RFU CYB561 (11721691_x_at) / Fold change /veh CYB561 (11721691_x_at) / RFU ANKRD19P (11752326_a_at) / Fold change /veh ANKRD19P (11752326_a_at) / RFU OR2T12 /// OR2T33 /// OR2T8 (11738714_s_at) / Fold change /veh OR2T12 /// OR2T33 /// OR2T8 (11738714_s_at) / RFU VCAN (11748164_a_at) / Fold change /veh VCAN (11748164_a_at) / RFU JSRP1 (11732532_at) / Fold change /veh JSRP1 (11732532_at) / RFU KRTAP10-11 (11738290_x_at) / Fold change /veh KRTAP10-11 (11738290_x_at) / RFU MYO3A (11730013_a_at) / Fold change /veh MYO3A (11730013_a_at) / RFU EBF3 (11725865_a_at) / Fold change /veh EBF3 (11725865_a_at) / RFU CAMK2N1 (11719241_x_at) / Fold change /veh CAMK2N1 (11719241_x_at) / RFU C5orf56 (11738088_a_at) / Fold change /veh C5orf56 (11738088_a_at) / RFU OLFML3 (11715873_a_at) / Fold change /veh OLFML3 (11715873_a_at) / RFU LOC100653217 /// NTM (11731650_a_at) / Fold change /veh LOC100653217 /// NTM (11731650_a_at) / RFU MAPK11 (11762145_a_at) / Fold change /veh MAPK11 (11762145_a_at) / RFU FIZ1 (11724087_x_at) / Fold change /veh FIZ1 (11724087_x_at) / RFU OASL (11726364_x_at) / Fold change /veh OASL (11726364_x_at) / RFU SOX15 (11748057_x_at) / Fold change /veh SOX15 (11748057_x_at) / RFU CD79A (11719716_a_at) / Fold change /veh CD79A (11719716_a_at) / RFU HIST1H1D (11736915_at) / Fold change /veh HIST1H1D (11736915_at) / RFU CASKIN2 (11723855_a_at) / Fold change /veh CASKIN2 (11723855_a_at) / RFU LOC730098 (11760151_x_at) / Fold change /veh LOC730098 (11760151_x_at) / RFU OR4N2 (11742367_at) / Fold change /veh OR4N2 (11742367_at) / RFU PRRT2 (11749266_a_at) / Fold change /veh PRRT2 (11749266_a_at) / RFU SNX32 (11753110_a_at) / Fold change /veh SNX32 (11753110_a_at) / RFU CDHR5 (11726645_a_at) / Fold change /veh CDHR5 (11726645_a_at) / RFU RCAN1 (11760418_a_at) / Fold change /veh RCAN1 (11760418_a_at) / RFU FAM167A (11723789_a_at) / Fold change /veh FAM167A (11723789_a_at) / RFU FAM26E (11764081_at) / Fold change /veh FAM26E (11764081_at) / RFU ISYNA1 (11749810_s_at) / Fold change /veh ISYNA1 (11749810_s_at) / RFU ACY1 (11761880_at) / Fold change /veh ACY1 (11761880_at) / RFU 11764098_at / Fold change /veh 11764098_at / RFU SAMD14 (11745864_x_at) / Fold change /veh SAMD14 (11745864_x_at) / RFU NPB (11741838_a_at) / Fold change /veh NPB (11741838_a_at) / RFU TMPRSS6 (11731388_a_at) / Fold change /veh TMPRSS6 (11731388_a_at) / RFU KRTAP10-2 (11738614_at) / Fold change /veh KRTAP10-2 (11738614_at) / RFU ARHGAP8 /// PRR5-ARHGAP8 (11727945_x_at) / Fold change /veh ARHGAP8 /// PRR5-ARHGAP8 (11727945_x_at) / RFU KRTAP5-7 /// NADSYN1 (11734609_at) / Fold change /veh KRTAP5-7 /// NADSYN1 (11734609_at) / RFU RASL12 (11751679_a_at) / Fold change /veh RASL12 (11751679_a_at) / RFU CDKN2B (11736163_a_at) / Fold change /veh CDKN2B (11736163_a_at) / RFU PRF1 (11729649_at) / Fold change /veh PRF1 (11729649_at) / RFU, ZNF638 /// ZNF638-IT1 / Fold change vs veh, ZNF638 /// ZNF638-IT1 / RFU, PANK3 / Fold change vs veh, PANK3 / RFU, SH3YL1 / Fold change vs veh, SH3YL1 / RFU, ZEB2 / Fold change vs veh, ZEB2 / RFU, NRIP1 / Fold change vs veh, NRIP1 / RFU, PTTG1IP / Fold change vs veh, PTTG1IP / RFU, CAPN2 / Fold change vs veh, CAPN2 / RFU, MED14 / Fold change vs veh, MED14 / RFU, SNORA58 / Fold change vs veh, SNORA58 / RFU, C1orf63 / Fold change vs veh, C1orf63 / RFU, LRRFIP1 / Fold change vs veh, LRRFIP1 / RFU, NDUFAF7 / Fold change vs veh, NDUFAF7 / RFU, SLC12A2 / Fold change vs veh, SLC12A2 / RFU, IBTK / Fold change vs veh, IBTK / RFU, ESF1 / Fold change vs veh, ESF1 / Fold change vs veh, TMEM50B / RFU, TAOK1 / Fold change vs veh, TAOK1 / RFU, ACBD3 / Fold change vs veh, ACBD3 / RFU, TMA16 / Fold change vs veh, TMA16 / RFU, RWDD3 / Fold change vs veh, RWDD3 / RFU, BCAT1 / Fold change vs veh, BCAT1 / RFU, EDEM3 / Fold change vs veh, EDEM3 / RFU, TMEM33 / Fold change vs veh, TMEM33 / RFU, WDR75 / Fold change vs veh, WDR75 / RFU, AHCTF1 / Fold change vs veh, AHCTF1 / RFU, TFRC / Fold change vs veh, TFRC / RFU, ZDHHC17 / Fold change vs veh, ZDHHC17 / RFU, NOM1 / Fold change vs veh, NOM1 / RFU, ARL8B / Fold change vs veh, ARL8B / RFU, ZBTB11 / Fold change vs veh, ZBTB11 / RFU, TAMM41 / Fold change vs veh, TAMM41 / RFU, KIAA1704 /// LOC100996395 / Fold change vs veh, KIAA1704 /// LOC100996395 / RFU, ING1 / Fold change vs veh, ING1 / RFU, TRMT61B / Fold change vs veh, TRMT61B / RFU, FUBP3 / Fold change vs veh, FUBP3 / RFU, TP53 / Fold change vs veh, TP53 / RFU, TNKS2 / Fold change vs veh, TNKS2 / RFU, ZFP14 / Fold change vs veh, ZFP14 / RFU, ACTR2 / Fold change vs veh, ACTR2 / RFU, PPP3R1 / Fold change vs veh, PPP3R1 / RFU, PIK3R1 / Fold change vs veh, PIK3R1 / RFU, HNRNPA1 / Fold change vs veh, HNRNPA1 / RFU, RNF170 / Fold change vs veh, RNF170 / RFU, ZNF28 / Fold change vs veh, ZNF28 / RFU, RNGTT / Fold change vs veh, RNGTT / RFU, OGT / Fold change vs veh, OGT / RFU, BRD1 / Fold change vs veh, BRD1 / RFU, MARS / Fold change vs veh, MARS / RFU, ZNF655 / Fold change vs veh, ZNF655 / RFU, FAHD1 / Fold change vs veh, FAHD1 / RFU, BDP1 / Fold change vs veh, BDP1 / RFU, LRRCC1 / Fold change vs veh, LRRCC1 / RFU, ARID1A / Fold change vs veh, ARID1A / RFU, ZNF146 / Fold change vs veh, ZNF146 / RFU, ZNF330 / Fold change vs veh, ZNF330 / RFU, GPN3 / Fold change vs veh, GPN3 / RFU, C9orf123 / Fold change vs veh, C9orf123 / RFU, N4BP2L2 / Fold change vs veh, N4BP2L2 / RFU, ARFIP1 / Fold change vs veh, ARFIP1 / RFU, FAM179B / Fold change vs veh, FAM179B / RFU, BCL10 / Fold change vs veh, BCL10 / RFU, UHRF1BP1L / Fold change vs veh, UHRF1BP1L / RFU, BET1 / Fold change vs veh, BET1 / RFU, CNOT2 / Fold change vs veh, CNOT2 / RFU, ZNF268 / Fold change vs veh, ZNF268 / Fold change vs veh, ZNF507 / RFU, DGCR2 / Fold change vs veh, DGCR2 / RFU, WDSUB1 / Fold change vs veh, WDSUB1 / Fold change vs veh, HSP90B1 /// MIR3652 / RFU, ADSS / Fold change vs veh, ADSS / RFU, GK / Fold change vs veh, GK / RFU, ZNF148 / Fold change vs veh, ZNF148 / RFU, TAF9 / Fold change vs veh, TAF9 / RFU, SLC1A5 / Fold change vs veh, SLC1A5 / RFU, SLMO2 / Fold change vs veh, SLMO2 / RFU, ABCC4 / Fold change vs veh, ABCC4 / RFU, LOC101060439 /// RAP1B / Fold change vs veh, LOC101060439 /// RAP1B / RFU, RFX7 / Fold change vs veh, RFX7 / RFU, GTPBP10 / Fold change vs veh, GTPBP10 / RFU, CNEP1R1 / Fold change vs veh, CNEP1R1 / RFU, BIVM-ERCC5 /// ERCC5 / Fold change vs veh, BIVM-ERCC5 /// ERCC5 / RFU, ILF3 / Fold change vs veh, ILF3 / RFU 11762660_at / Fold change /veh 11762660_at / RFU VCAN (11757783_s_at) / Fold change /veh VCAN (11757783_s_at) / RFU DDX43 (11728927_at) / Fold change /veh DDX43 (11728927_at) / RFU KRT8 (11758188_x_at) / Fold change /veh KRT8 (11758188_x_at) / RFU NKD1 (11759106_at) / Fold change /veh NKD1 (11759106_at) / RFU SRD5A1 (11742802_a_at) / Fold change /veh SRD5A1 (11742802_a_at) / RFU TPSAB1 /// TPSB2 (11721975_s_at) / Fold change /veh TPSAB1 /// TPSB2 (11721975_s_at) / RFU GSTM3 (11746129_a_at) / Fold change /veh GSTM3 (11746129_a_at) / RFU IL23R (11737362_x_at) / Fold change /veh IL23R (11737362_x_at) / RFU TMEM51 (11727254_a_at) / Fold change /veh TMEM51 (11727254_a_at) / RFU PIWIL2 (11732686_x_at) / Fold change /veh PIWIL2 (11732686_x_at) / RFU ORM1 (11744905_x_at) / Fold change /veh ORM1 (11744905_x_at) / RFU CCDC152 (11743942_at) / Fold change /veh CCDC152 (11743942_at) / RFU ECM1 (11717891_a_at) / Fold change /veh ECM1 (11717891_a_at) / RFU IL23R (11748794_a_at) / Fold change /veh IL23R (11748794_a_at) / RFU TNFAIP8L3 (11732012_x_at) / Fold change /veh TNFAIP8L3 (11732012_x_at) / RFU MBOAT4 (11741988_at) / Fold change /veh MBOAT4 (11741988_at) / RFU 11764193_at / Fold change /veh 11764193_at / RFU TMEM53 (11763286_at) / Fold change /veh TMEM53 (11763286_at) / RFU MAGEB2 (11727129_at) / Fold change /veh MAGEB2 (11727129_at) / RFU TMEM200A (11744735_a_at) / Fold change /veh TMEM200A (11744735_a_at) / RFU CCDC152 (11751479_a_at) / Fold change /veh CCDC152 (11751479_a_at) / RFU FAM211A (11726209_a_at) / Fold change /veh FAM211A (11726209_a_at) / RFU RGS16 (11746705_a_at) / Fold change /veh RGS16 (11746705_a_at) / RFU VCAN (11755009_s_at) / Fold change /veh VCAN (11755009_s_at) / RFU RHOB (11743442_s_at) / Fold change /veh RHOB (11743442_s_at) / RFU RGS16 (11720943_a_at) / Fold change /veh RGS16 (11720943_a_at) / RFU RGS16 (11720944_at) / Fold change /veh RGS16 (11720944_at) / RFU, VPS4B / Fold change vs veh, VPS4B / RFU, CREB1 / Fold change vs veh, CREB1 / RFU, DNAJC13 / Fold change vs veh, DNAJC13 / RFU, GNAQ / Fold change vs veh, GNAQ / RFU, CDK5R1 / Fold change vs veh, CDK5R1 / RFU, ZRANB3 / Fold change vs veh, ZRANB3 / RFU, CUL4A / Fold change vs veh, CUL4A / RFU, CCNY / Fold change vs veh, CCNY / RFU, UFL1 / Fold change vs veh, UFL1 / RFU, COG3 / Fold change vs veh, COG3 / RFU, DIAPH2 / Fold change vs veh, DIAPH2 / RFU, SKA2 / Fold change vs veh, SKA2 / RFU, AFF3 / Fold change vs veh, AFF3 / RFU, LMF1 / Fold change vs veh, LMF1 / RFU, IPO11 / Fold change vs veh, IPO11 / RFU, DFFB / Fold change vs veh, DFFB / RFU, FOXP1 / Fold change vs veh, FOXP1 / RFU, CARD8 / Fold change vs veh, CARD8 / RFU, STRN3 / Fold change vs veh, STRN3 / RFU, ADK / Fold change vs veh, ADK / RFU, RASSF2 / Fold change vs veh, RASSF2 / RFU, WIPF1 / Fold change vs veh, WIPF1 / RFU, LARP1B / Fold change vs veh, LARP1B / RFU, RASA1 / Fold change vs veh, RASA1 / RFU, RB1 / Fold change vs veh, RB1 / RFU, PPFIA1 / Fold change vs veh, PPFIA1 / RFU, MAT2A / Fold change vs veh, MAT2A / RFU, CCT5 / Fold change vs veh, CCT5 / RFU, WDR92 / Fold change vs veh, WDR92 / RFU, CUX1 / Fold change vs veh, CUX1 / RFU, TTC7A / Fold change vs veh, TTC7A / RFU, TMEM135 / Fold change vs veh, TMEM135 / RFU, DEPTOR / Fold change vs veh, DEPTOR / RFU, CPM / Fold change vs veh, CPM / RFU, DNAJB6 / Fold change vs veh, DNAJB6 / RFU, CACNA2D3 / Fold change vs veh, CACNA2D3 / RFU, DTX4 / Fold change vs veh, DTX4 / RFU, TFCP2 / Fold change vs veh, TFCP2 / RFU, GMCL1 /// GMCL1P1 / Fold change vs veh, GMCL1 /// GMCL1P1 / RFU, AEBP2 / Fold change vs veh, AEBP2 / RFU, SNHG1 /// SNORD22 /// SNORD25 /// SNORD26 /// SNORD27 /// SNORD28 /// SNORD29 /// SNORD31 / Fold change vs veh, SNHG1 /// SNORD22 /// SNORD25 /// SNORD26 /// SNORD27 /// SNORD28 /// SNORD29 /// SNORD31 / Fold change (Aza/veh), C12orf56 (ProbeSet 11735607_a_at) / Fold change (ACY-1035/veh), C12orf56 (ProbeSet 11735607_a_at) / Fold change (Aza/veh), FGFR1OP (ProbeSet 11751329_s_at) / Fold change (ACY-1035/veh), FGFR1OP (ProbeSet 11751329_s_at) / Fold change (Aza/veh), VPS36 (ProbeSet 11739960_a_at) / Fold change (ACY-1035/veh), VPS36 (ProbeSet 11739960_a_at) / RFU SYPL1 (11715823_x_at) / Fold change /veh SYPL1 (11715823_x_at) / RFU IGFBP7 (11715501_s_at) / Fold change /veh IGFBP7 (11715501_s_at) / RFU REEP3 (11722064_at) / Fold change /veh REEP3 (11722064_at) / RFU IGLL1 (11728026_x_at) / Fold change /veh IGLL1 (11728026_x_at): dose or concentration left out as unconfirmed
Conditions: ProbeSet 11725217_a_at; LIST B

SMILES: Nc1ccc(-c2cccs2)cc1NC(=O)c1ccc2c(c1)cc(C1CC1)n2CCN1CCOCC1 [ACY-1035]
- RFU, WDSUB1: 59.59 RFU
